According to patent US9597314B2, “Beta-lactamylalkanoic acids for treating premenstrual disorders” (AZEVAN PHARMACEUTICALS, INC., priority 2005, dated 2017):

Molecular target: V1a (Homo sapiens, UniProt P37288)
Experiment: Human vasopression V1a receptor binding assay
Design: host or cells: CHO cells (hV1a cell line), whole adherent cells
Details: hV1a cell line (CHO); for IC50: 1 nM 3H-AVP, Table 17, read-out: V1a Binding Affinity (IC50 (nM)); for Ki: Table 18
Description: Human vasopression V1a receptor binding assay. A cell line expressing the human V1a receptor in CHO cells (henceforth referred to as the hV1a cell line) was obtained from Dr. Michael Brownstein, NIMH, Bethesda, Md., USA. The hV1a cDNA sequence is described by Thibonnier et al., Journal of Biological Chemistry, 269, 3304-3310 (1994), and the expression method was the same as described by Morel et al. (1992). The hV1a cell line was grown in alpha-MEM with 10% fetal bovine serum and 250 ug/ml G418 (Gibco, Grand Island, N.Y., USA). For competitive binding assay, hV1a cells were plated into 6-well culture plate at 1:10 dilution from a confluency flask, and maintained in culture for at least two days. Culture medium was then removed, cells were washed with 2 ml binding buffer (25 mM Hepes, 0.25% BSA, 1×DMEM, PH=7.0). To each well, 990 μl binding buffer containing 1 nM 3H-AVP was added, and followed by 10 μl series diluted Example compounds dissolved in DMSO. […] 100 nM cold AVP (Sigma) was used to assess non-specific binding. Cells were incubated for 45 minutes at 37° C., assay mixture was removed and each well was washed three times with PBS (pH=7.4). 1 ml 2% SDS was added per well and plates were let sit for 30 minutes. The whole content in a well was transferred to a scintillation vial. Each well was rinsed with 0.5 ml PBS which was then added to the corresponding vial. Scintillation fluid (Ecoscint, National Diagnostics, Atlanta, Ga.) was then added at 3 ml per vial. Samples were counted in a liquid scintillation counter (Beckman LS3801). IC50 values were calculated by Prism Curve fitting software.
All of the alkanedioic esters and amides exemplified in the foregoing examples dissolved in DMSO were tested in this assay. Binding curves were generated according to methods described by Thibonnier et al. (1994). [^3H]-AVP was added to the hV1a cell cultures followed by 10 fold dilutions of each test compound.

Sequence of V1a (P37288 whole entry): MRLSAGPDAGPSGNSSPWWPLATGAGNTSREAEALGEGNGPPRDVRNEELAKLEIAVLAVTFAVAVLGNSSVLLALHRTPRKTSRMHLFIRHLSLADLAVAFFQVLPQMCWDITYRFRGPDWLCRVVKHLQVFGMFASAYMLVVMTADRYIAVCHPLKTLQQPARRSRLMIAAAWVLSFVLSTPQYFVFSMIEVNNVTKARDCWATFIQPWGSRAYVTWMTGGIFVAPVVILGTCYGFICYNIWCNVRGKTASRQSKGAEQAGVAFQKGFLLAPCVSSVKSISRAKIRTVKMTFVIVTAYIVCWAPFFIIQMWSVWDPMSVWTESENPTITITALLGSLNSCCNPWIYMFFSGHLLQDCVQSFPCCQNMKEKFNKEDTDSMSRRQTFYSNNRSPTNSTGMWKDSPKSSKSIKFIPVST

Compound	IC50	Ki
CCCCN1CCN(C(=O)CC[C@@H](C(=O)NCc2cccc(C(F)(F)F)c2)N2C(=O)[C@@H](N3C(=O)OC[C@@H]3c3ccccc3)[C@H]2/C(Cl)=C/c2ccccc2)CC1 [Example 229]	1.53 nM	0.94 nM
O=C(C[C@@H](C(=O)NCc1cccc(C(F)(F)F)c1)N1C(=O)[C@@H](N2C(=O)OC[C@@H]2c2ccccc2)[C@H]1/C=C/c1ccccc1)N[C@H]1CCN(Cc2ccccc2)C1 [Example 85]	–	3.6 nM
O=C(NCc1ccc(Cl)c(C(F)(F)F)c1)[C@H](CCC(=O)N1CCN(C2CCCCC2)CC1)N1C(=O)[C@@H](N2C(=O)OC[C@@H]2c2ccccc2)[C@H]1/C=C/c1ccccc1 [Example 181]	< 50 nM	–
O=C(NCc1cccc(C(F)(F)F)c1)[C@H](CC(=O)N1CCCN(Cc2ccccc2)CC1)N1C(=O)[C@@H](N2C(=O)OC[C@@H]2c2ccccc2)[C@H]1/C=C/c1ccccc1 [Example 82]	–	5.12 nM
O=C(NCc1cccc(C(F)(F)F)c1)[C@H](CCC(=O)N1CCN(CCN2CCOCC2)CC1)N1C(=O)[C@@H](N2C(=O)OC[C@@H]2c2ccccc2)[C@H]1/C=C/c1ccccc1 [Example 112]	–	0.8 nM
O=C(NCc1ccccn1)[C@H](CCC(=O)N1CCN(C2CCCCC2)CC1)N1C(=O)[C@@H](N2C(=O)OC[C@@H]2c2ccccc2)[C@H]1/C=C/c1ccccc1 [Example 208]	16.3 nM	10 nM
O=C(NCc1cccc(Cl)c1)[C@H](CCC(=O)N1CCN(C2CCCCC2)CC1)N1C(=O)[C@@H](N2C(=O)OC[C@@H]2c2ccccc2)[C@H]1/C=C/c1ccccc1 [Example 187]	1 nM	–
CCCN1CCN(C(=O)CC[C@@H](C(=O)NCc2cccc(C(F)(F)F)c2)N2C(=O)[C@@H](N3C(=O)OC[C@@H]3c3ccccc3)[C@H]2/C=C/c2ccccc2)CC1 [Example 120B]	2.93 nM	1.79 nM
O=C(NCc1cccc(C(F)(F)F)c1)[C@H](CCC(=O)N1CCN(C2CCCCC2)CC1)N1C(=O)[C@@H](N2C(=O)OC[C@@H]2c2ccccc2)[C@H]1CCc1ccccc1 [Example 236, (2S)-[(4-cyclohexylpiperazinyl)carbonylethyl]-2-[3(S)-(4(S)-phenyloxazolidin-2-on-3-yl)-4(R)-(2-phenyleth-1-yl)azetidin-2-on-1-yl]acetic acid N-(3-trifluoromethylbenzyl)amide]	1.68 nM	1.03 nM
O=C(NCc1cccc(Br)c1)[C@H](CCC(=O)N1CCN(C2CCCCC2)CC1)N1C(=O)[C@@H](N2C(=O)OC[C@@H]2c2ccccc2)[C@H]1/C=C/c1ccccc1 [Example 190]	0.88 nM	0.54 nM
O=C(NCc1cccc(C(F)(F)F)c1)C(C(=O)N1CCN(CCc2ccccc2)CC1)N1C(=O)[C@@H](N2C(=O)OC[C@@H]2c2ccccc2)[C@H]1/C=C/c1ccccc1 (mixture of isomers) [Example 38]	–	85 nM

Second part, the molecule after the results:

IC50	Ki	Compound
56 nM	35 nM	O=C(N[C@@H]1CCCc2ccccc21)[C@H](CCC(=O)N1CCN(CCCO)CC1)N1C(=O)[C@@H](N2C(=O)OC[C@@H]2c2ccccc2)[C@H]1/C=C/c1ccccc1 [Example 221BI]
5.13 nM	3.14 nM	O=C(N[C@H]1CCc2ccccc21)[C@H](CCC(=O)N1CCN(C2CCCCC2)CC1)N1C(=O)[C@@H](N2C(=O)OC[C@@H]2c2ccccc2)[C@H]1/C=C/c1ccccc1 [Example 221R]
8.6 nM	5.25 nM	C[C@@]1(N2C(=O)OC[C@@H]2c2ccccc2)C(=O)N([C@H](CC(=O)N2CCC(N3CCCCC3)CC2)C(=O)NCc2cccc(C(F)(F)F)c2)[C@@H]1/C=C/c1ccccc1 [Example 234A, 4-(Piperidinyl)-piperidinyl 3(R)-[3(S)-(4(S)-phenyloxazolidin-2-on-3-yl)-3-methyl-4(R)-(styr-2-yl)azetidin-2-on-1-yl]-3-[(3-trifluoromethyl)phenylmethylaminocarbonyl]propanoic acid]
12.7 nM	7.8 nM	CCCCN1CCN(C(=O)CC[C@@H](C(=O)NCc2cccc(C(F)(F)F)c2)N2C(=O)C(N3C(=O)OC[C@@H]3c3ccccc3)C2/C(Br)=C/c2ccccc2)CC1 (stereo partly drawn) [Example 230L]
